Measurements as given in PMC3963471 (Bioorganic & medicinal chemistry letters, 2013).
Blank lines part the entries; values can stand above or below the compound they belong to.

Columns and labels:
S1P4-R = biological target: T1, S1P4-R (Homo sapiens, UniProt O95977); assay: S1P4-R selectivity counter screen; type: cell-based; conditions: at concentrations up to 50 µM
T1 sequence (O95977 1-384): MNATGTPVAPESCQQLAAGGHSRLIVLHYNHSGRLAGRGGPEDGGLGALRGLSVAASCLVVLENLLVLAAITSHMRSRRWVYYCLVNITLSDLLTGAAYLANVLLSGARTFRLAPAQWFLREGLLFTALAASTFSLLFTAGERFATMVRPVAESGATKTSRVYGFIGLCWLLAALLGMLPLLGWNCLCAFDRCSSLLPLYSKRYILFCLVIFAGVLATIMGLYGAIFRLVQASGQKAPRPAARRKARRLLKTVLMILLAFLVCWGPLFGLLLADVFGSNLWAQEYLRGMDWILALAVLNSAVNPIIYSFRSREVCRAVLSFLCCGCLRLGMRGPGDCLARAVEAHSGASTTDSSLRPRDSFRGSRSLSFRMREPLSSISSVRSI

S1P2-R = S1P2-R (Homo sapiens, UniProt O95136); assay: S1P2-R selectivity counter screen; type: cell-based; conditions: at concentrations up to 50 µM
Sequence of S1P2-R (O95136 whole entry): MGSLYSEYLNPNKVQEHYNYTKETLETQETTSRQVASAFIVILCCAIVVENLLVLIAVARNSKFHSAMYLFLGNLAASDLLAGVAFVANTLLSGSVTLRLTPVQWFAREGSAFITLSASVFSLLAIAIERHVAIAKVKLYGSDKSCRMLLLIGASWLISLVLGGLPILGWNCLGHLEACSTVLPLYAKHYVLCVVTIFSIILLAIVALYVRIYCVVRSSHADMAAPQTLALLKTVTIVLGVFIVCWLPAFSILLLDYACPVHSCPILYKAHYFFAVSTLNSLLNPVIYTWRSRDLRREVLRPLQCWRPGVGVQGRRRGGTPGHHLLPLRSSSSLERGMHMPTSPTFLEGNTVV

S1P3-R [1] = biological target: T2, S1P3-R (Homo sapiens, UniProt Q99500); assay: S1P3-R agonist assay, CHO NFAT-BLA reporter; type: cell-based; conditions: for loss in potency for the S1P3-R relative to hit 1a: less potent than 1a; for selectivity against S1P1,2,4,5-R subtypes (in words): S1P3-R agonist versus remaining subtypes; for loss of potency at S1P3-R relative to 5f: less potent than 5f
T2 sequence (Q99500 whole entry): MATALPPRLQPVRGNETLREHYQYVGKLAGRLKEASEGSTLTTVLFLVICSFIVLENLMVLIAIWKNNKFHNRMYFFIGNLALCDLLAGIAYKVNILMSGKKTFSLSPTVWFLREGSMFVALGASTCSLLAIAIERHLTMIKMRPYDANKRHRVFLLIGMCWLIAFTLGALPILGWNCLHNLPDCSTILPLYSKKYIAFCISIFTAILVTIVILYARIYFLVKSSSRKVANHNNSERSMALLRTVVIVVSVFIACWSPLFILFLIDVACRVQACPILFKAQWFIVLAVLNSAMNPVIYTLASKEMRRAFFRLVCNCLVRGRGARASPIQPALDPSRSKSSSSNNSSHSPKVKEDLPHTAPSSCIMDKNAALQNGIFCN

S1P1-R = S1P1-R (Homo sapiens, UniProt P21453); assay: S1P1-R agonist assay; type: cell-based
Sequence of S1P1-R (P21453 whole entry): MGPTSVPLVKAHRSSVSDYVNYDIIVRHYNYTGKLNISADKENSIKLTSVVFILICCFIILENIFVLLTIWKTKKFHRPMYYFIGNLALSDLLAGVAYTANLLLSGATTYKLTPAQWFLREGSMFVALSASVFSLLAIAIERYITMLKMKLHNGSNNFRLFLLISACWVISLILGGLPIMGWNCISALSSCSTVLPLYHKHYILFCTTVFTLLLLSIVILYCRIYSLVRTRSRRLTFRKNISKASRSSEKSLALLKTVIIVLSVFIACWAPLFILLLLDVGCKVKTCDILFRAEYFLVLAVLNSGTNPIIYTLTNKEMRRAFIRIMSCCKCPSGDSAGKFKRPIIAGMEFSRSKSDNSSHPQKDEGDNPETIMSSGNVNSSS

S1P3-R [2] = biological target: T2, S1P3-R; assay: [33P]S1P competitive binding experiment in S1P3 jump-in CHO cells; conditions: 0.1 nM [33P]S1P; competitor 0.001 nM to 10 µM; 4 °C, 30 min
sodium channel site two = assay: Ricerca panel: sodium channel site two; type: binding; conditions: 30 µM; borderline inhibition
[3] = test system: Ricerca panel of off target proteins including GPCRs, enzymes and ion channels; assay: Ricerca panel of off target proteins; conditions: at 30 µM; targets other than those singled out

activity at S1P3-R (in words) (S1P3-R [1]): complete loss of activity
SMILES: O=C(NC1CCCCC1)c1cc(C2CC2)on1 [Compd 7a]

loss of potency at S1P3-R relative to 5f (S1P3-R [1]): 16 fold
SMILES: O=C(c1cc(C2CC2)on1)N(C1CCCCC1)C1CCCC1 [Compd 7b]

loss of potency at S1P3-R relative to 5f (S1P3-R [1]): 33 fold
SMILES: O=C(c1cc(C2CC2)on1)N(C1CCCCC1)C1CCOCC1 [Compd 7c]

loss of potency at S1P3-R relative to 5f (S1P3-R [1]): 32 fold
SMILES: O=C(c1cc(C2CC2)on1)N(CC1CCCCC1)C1CCCCC1 [Compd 7d]

selectivity against S1P1,2,4,5-R subtypes (in words) (S1P3-R [1]): exquisitely selective
loss of potency at S1P3-R relative to 5f (S1P3-R [1]): three-fold
SMILES: CC1CCCCC1N(C(=O)c1cc(C2CC2)on1)C1CCCCC1 (centres unmarked) [Compd 7e]

selectivity against S1P1,2,4,5-R subtypes (in words) (S1P3-R [1]): exquisitely selective
loss of potency at S1P3-R relative to 5f (S1P3-R [1]): two-fold
SMILES: CC1CCCCC1N(C(=O)c1cc(C2CC2)on1)C1CCCCC1C (centres unmarked) [Compd 7f]

less potent than 7e at S1P3-R (S1P3-R [1]; relative to 7e): almost two-fold
SMILES: CC1CCCCC1N(C(=O)c1cc(C2CC2)on1)C1CCCCCC1 (centres unmarked) [Compd 7g]

loss of potency at S1P3-R relative to 5f (S1P3-R [1]): 26 fold
SMILES: O=C(c1cc(C2CC2)on1)N(C1CCCCCC1)C1CCCC1 [Compd 7j]

activity at S1P3-R (in words) (S1P3-R [1]): drastic loss in potency
SMILES: O=C(c1cc(C2CC2)on1)N(Cc1ccccc1)c1ccccc1 [Compd 7k]

activity at S1P3-R (in words) (S1P3-R [1]): drastic loss in potency
SMILES: O=C(c1cc(C2CC2)on1)N(Cc1ccccc1)c1ccccn1 [Compd 7l]

activity at S1P3-R (in words) (S1P3-R [1]): inactive
SMILES: O=C(c1coc(C2CC2)n1)N(C1CCCCC1)C1CCCCC1 [Compd 9a]

activity at S1P3-R (in words) (S1P3-R [1]): inactive
activity at S1P1-R (in words) (S1P1-R): micromolar activity
SMILES: O=C(c1ccc(C2CC2)o1)N(C1CCCCC1)C1CCCCC1 [Compd 9b]

activity at S1P3-R (in words) (S1P3-R [1]): inactive
SMILES: O=C(c1noc2ccccc12)N(C1CCCCC1)C1CCCCC1 [Compd 9c]

Continued, compound first:

SMILES: CCCc1cc(C(=O)N(C2CCCCC2)C2CCCCC2)no1 [Compd 1a, N,N-dicyclohexyl-5-propylisoxazole-3-carboxamide]
agonist activity at S1P4-R (S1P4-R): no agonist activity
agonist activity at S1P2-R (S1P2-R): no agonist activity

SMILES: CCCc1cc(C(=O)N(C2CCCCC2)C2CCCC2)no1 [Compd 1b]
loss in potency for the S1P3-R relative to hit 1a (S1P3-R [1]): 18 fold
loss in potency for the S1P1-R relative to hit 1a (S1P1-R; less potent than 1a): three-fold

SMILES: CCCc1cc(C(=O)NC2CCCCC2)no1 [Compd 1c]
activity at S1P3-R (in words) (S1P3-R [1]): complete loss of potency
activity at S1P1-R (in words) (S1P1-R): complete loss of potency

SMILES: CCCc1cc(C(=O)N(c2ccccc2)C2CCCCC2)no1 [Compd 1d]
activity at S1P3-R (in words) (S1P3-R [1]): complete loss of potency
activity at S1P1-R (in words) (S1P1-R): complete loss of potency

SMILES: CC(C)Cc1cc(C(=O)N(C2CCCCC2)C2CCCCC2)no1 [Compd 5a]
loss in potency for the S1P3-R relative to hit 1a (S1P3-R [1]): three-fold
less selective against the S1P1-R than the hit (S1P1-R; S1P3-R over S1P1-R, relative to 1a): four-fold

SMILES: CC(C)c1cc(C(=O)N(C2CCCCC2)C2CCCCC2)no1 [Compd 5b]
loss in potency for the S1P3-R relative to hit 1a (S1P3-R [1]): two-fold

SMILES: Cc1cc(C(=O)N(C2CCCCC2)C2CCCCC2)no1 [Compd 5c]
loss in potency for the S1P3-R relative to hit 1a (S1P3-R [1]): 15 fold

SMILES: O=C(c1cc(C2CCCCC2)on1)N(C1CCCCC1)C1CCCCC1 [Compd 5d]
activity at S1P1-R (in words) (S1P1-R): inactive

SMILES: O=C(c1cc(C2CCCC2)on1)N(C1CCCCC1)C1CCCCC1 [Compd 5e]
activity at S1P1-R (in words) (S1P1-R): inactive

SMILES: O=C(c1cc(C2CC2)on1)N(C1CCCCC1)C1CCCCC1 [Compd 5f, N,N-dicyclohexyl-5-cyclopropylisoxazole-3-carboxamide]
competition with [33P]S1P for the S1P3-R binding pocket (S1P3-R [2]): does not compete
selectivity against S1P1,2,4,5-R subtypes (in words) (S1P3-R [1]): exquisitely selective
more potent than the hit at S1P3-R (S1P3-R [1]; relative to 1a): four-fold
inhibition of sodium channel site two (sodium channel site two): ≥ 50%
stimulation/inhibition of panel targets [3]: < 50%

SMILES: COc1ccc(-c2cc(C(=O)N(C3CCCCC3)C3CCCCC3)no2)cc1 [Compd 5h]
selectivity against the S1P1-R (S1P1-R; S1P3-R over S1P1-R): less than three-fold

SMILES: CCOc1ccc(-c2cc(C(=O)N(C3CCCCC3)C3CCCCC3)no2)cc1OCC [Compd 5i]
loss in potency for the S1P3-R relative to hit 1a (S1P3-R [1]): 18 fold

SMILES: CCCCCCCCCCCCC/C=C/[C@@H](O)[C@@H](N)COP(=O)(O)O [S1P, Sphingosine-1-phosphate, reference compound]
competition with [33P]S1P for the S1P3-R binding pocket (S1P3-R [2]): competes
